Data on 30 compounds can be found in patent US8648066B2 (Exelixis, Inc., priority 2009, dated 2014).

The assay concerns the target mTOR/GbL/Raptor (mTORC1) (Homo sapiens, UniProt P42345). Nature of the assay: mTOR/GbL/Raptor (mTORC1) ELISA assay. Conditions: phosphorylation of 4E-BP1; 0.2 nM mTORC1, 10 μM ATP; read-out: IC50 in this assay (mTORC1 ELISA). Format: biochemical. The method in brief:
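ELISA read-out: phospho-4E-BP1 captured on Ni-chelate plates and detected with anti-phospho antibody plus HRP-anti-IgG luminescence. The kinase step ran 120 min at ambient temperature with 0.2 nM human mTORC1, 10 µM ATP, 50 nM His-4E-BP1, 10 mM MnCl2, pH 7.2 HEPES.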

Structures are written as SMILES. A value given as a limit tells only on which side of the number the result lay.

Consider `COc1cc2c(N3CCOc4ccc(-c5ccc6nc(C)[nH]c6c5)cc4C3)ncnc2c(OC)c1OC` [Example 57, 7-(2-methyl-1H-benzimidazol-6-yl)-4-[6,7,8-tris(methyloxy)quinazolin-4-tris(methyloxy)quinazolin-4-yl]-2,3,4,5-tetrahydro-1,4-benzoxazepine], for which the IC50 is at least 2 µM. The result for `Cc1nc2ncc(-c3ccc4c(c3)CN(c3ncnc(N5CCOCC5)c3C)CCO4)cc2[nH]1` [Example 551] reads 0.25 to 1 µM; that for `CC1(C)CCc2ncnc(N3CCOc4ccc(-c5cnc(N)c(S(C)(=O)=O)c5)cc4C3)c2C1` [Example 512, 5-[4-(6,6-dimethyl-5,6,7,8-tetrahydroquinazolin-4-yl)-2,3,4,5-tetrahydro-1,4-benzoxazepin-7-yl]-3-(methylsulfonyl)pyridin-2-amine], 0.01 to 0.05 µM. The result for `c1cc(N2CCOc3ccc(-c4ccc5nc[nH]c5c4)cc3C2)ncn1` [Example 541, 7-(1H-benzimidazol-6-yl)-4-pyrimidin-4-yl-2,3,4,5-tetrahydro-1,4-benzoxazepine] reads at least 2 µM. The result for `CCNc1nc2ccc(-c3ccc4c(c3)CN(c3ncnc(C)c3Cc3ccc(F)cc3)CCO4)cc2[nH]1` [Example 192, N-ethyl-6-(4-{5-[(4-fluorophenyl)methyl]-6-methylpyrimidin-4-yl}-2,3,4,5-tetrahydro-1,4-benzoxazepin-7-yl)-1H-benzimidazol-2-amine] reads at most 0.01 µM; that for `Cc1nc2cc(-c3ccc4c(c3)CN(c3nc(CN(C)C)nc(C)c3CC(C)C)CCO4)ccc2[nH]1` [Example 655, N,N-dimethyl-1-{4-methyl-6-[7-(2-methyl-1H-benzimidazol-5-yl)-2,3-dihydro-1,4-benzoxazepin-4(5H)-yl]-5-(2-methylpropyl)pyrimidin-2-yl}methanamine], 0.25 to 1 µM; that for `COc1ccc2c(N3CCOc4ccc(-c5cnc6[nH]c(C)nc6c5)cc4C3)nc(C)nc2c1` [Example 568, 7-(2-methyl-1H-imidazo[4,5-b]pyridin-6-yl)-4-[2-methyl-7-(methyloxy)quinazolin-4-yl]-2,3,4,5-tetrahydro-1,4-benzoxazepine], 0.05 to 0.25 µM. With `CC1(C)CCc2ncnc(N3CCOc4ccc(-c5cnc(N)c(S(=O)(=O)N6CCCC(N)C6)c5)cc4C3)c2C1` (stereo not drawn) [Example 444, 3-[(3-aminopiperidin-1-yl)sulfonyl]-5-[4-(6,6-dimethyl-5,6,7,8-tetrahydroquinazolin-4-yl)-2,3,4,5-tetrahydro-1,4-benzoxazepin-7-yl]pyridin-2-amine], the IC50 lay within 0.01 to 0.05 µM. The result for `COc1ccccc1Cc1c(C)ncnc1N1CCOc2ccc(-c3ccc4nc(C)[nH]c4c3)cc2C1` [Example 84, 7-(2-methyl-1H-benzimidazol-6-yl)-4-(6-methyl-5-{[2-(methyloxy)phenyl]methyl}pyrimidin-4-yl)-2,3,4,5-tetrahydro-1,4-benzoxazepine] reads 0.01 to 0.05 µM; that for `Cc1nc2ccc(-c3ccc4c(c3)CN(c3ncnc5c3CC(C)C5)CCO4)cc2[nH]1` (stereo not drawn) [Example 76, 7-(2-methyl-1H-benzimidazol-6-yl)-4-(6-methyl-6,7-dihydro-5H-cyclopenta[d]pyrimidin-4-yl)-2,3,4,5-tetrahydro-1,4-benzoxazepine], 0.05 to 0.25 µM; that for `CCNc1nc2ccc(-c3ccc4c(c3)CN(c3ccnc5cc(F)ccc35)CCO4)cc2[nH]1` [Example 268, N-ethyl-6-[4-(7-fluoroquinolin-4-yl)-2,3,4,5-tetrahydro-1,4-benzoxazepin-7-yl]-1H-benzimidazol-2-amine], 0.05 to 0.25 µM. As for `CC1(C)CCc2ncnc(N3CCOc4ccc(-c5cnc6[nH]c(C7CC7)nc6c5)cc4C3)c2C1` [Example 224, 7-(2-cyclopropyl-3H-imidazo[4,5-b]pyridin-6-yl)-4-(6,6-dimethyl-5,6,7,8-tetrahydroquinazolin-4-yl)-2,3,4,5-tetrahydro-1,4-benzoxazepine], the figure is at most 0.01 µM; as for `Cc1nc2ccc(-c3ccc4c(c3)CN(c3ncnc(C)c3Cc3ccc(F)cc3)CCO4)cc2[nH]1` [Example 79, 4-{5-[(4-fluorophenyl)methyl]-6-methylpyrimidin-4-yl}-7-(2-methyl-1H-benzimidazol-6-yl)-2,3,4,5-tetrahydro-1,4-benzoxazepine], at most 0.01 µM. The result for `Cc1nc2ccc(-c3ccc4c(c3)CN(c3ncnc5c(C#N)c6n(c35)CCCC6)CCO4)cc2[nH]1` [Example 51, 4-[7-(2-methyl-1H-benzimidazol-6-yl)-2,3-dihydro-1,4-benzoxazepin-4(5H)-yl]-6,7,8,9-tetrahydropyrimido[4,5-b]indolizine-10-carbonitrile] reads 0.25 to 1 µM; that for `Cc1nc2ccc(-c3ccc4c(c3)CN(c3ncnc(C)c3CC3CC3)CCO4)cc2[nH]1` [Example 69, 4-[5-(cyclopropylmethyl)-6-methylpyrimidin-4-yl]-7-(2-methyl-1H-benzimidazol-6-yl)-2,3,4,5-tetrahydro-1,4-benzoxazepine], 0.05 to 0.25 µM; that for `COc1ccc2c(N3CCOc4ccc(-c5ccc(-c6ncc[nH]6)cc5)cc4C3)nc(C)nc2c1` [Example 256, 7-[4-(1H-imidazol-2-yl)phenyl]-4-[2-methyl-7-(methyloxy)quinazolin-4-yl]-2,3,4,5-tetrahydro-1,4-benzoxazepine], 0.01 to 0.05 µM.

As for `CC1(C)CCc2ncnc(N3CCOc4ccc(-c5cnc(N)c(S(=O)(=O)N6CCOCC6)c5)cc4C3)c2C1` [Example 513, 5-[4-(6,6-dimethyl-5,6,7,8-tetrahydroquinazolin-4-yl)-2,3,4,5-tetrahydro-1,4-benzoxazepin-7-yl]-3-(morpholin-4-ylsulfonyl)pyridin-2-amine], the IC50 was in the range of 0.05 to 0.25 µM. The result for `COC(=O)Nc1nc2ccc(-c3ccc4c(c3)CN(c3ncnc5ccccc35)CCO4)cc2[nH]1` [Example 109, methyl [6-(4-quinazolin-4-yl-2,3,4,5-tetrahydro-1,4-benzoxazepin-7-yl)-1H-benzimidazol-2-yl]carbamate] reads 0.25 to 1 µM; that for `COc1cc2nccc(N3CCOc4ccc(-c5ccc(-c6ncc[nH]6)cc5)cc4C3)c2cc1OC` [Example 272, 4-[6,7-bis(methyloxy)quinolin-4-yl]-7-[4-(1H-imidazol-2-yl)phenyl]-2,3,4,5-tetrahydro-1,4-benzoxazepine], 0.05 to 0.25 µM; that for `CN(C)Cc1nc2c(c(N3CCOc4ccc(-c5ccc6[nH]c(CF)nc6c5)cc4C3)n1)CC(C)(C)CC2` [Example 322], 0.01 to 0.05 µM.

Consider `CN(C)Cc1nc2c(c(N3CCOc4ccc(-c5ccc6scnc6c5)cc4C3)n1)CC(C)(C)CC2` [Example 337, 1-{4-[7-(1,3-benzothiazol-5-yl)-2,3-dihydro-1,4-benzoxazepin-4(5H)-yl]-6,6-dimethyl-5,6,7,8-tetrahydroquinazolin-2-yl}-N,N-dimethylmethanamine], for which the IC50 was 0.25 to 1 µM. The result for `CC1(C)CCc2ncnc(N3CCOc4ccc(-c5cnc6[nH]c(CF)nc6c5)cc4C3)c2C1` [Example 238, 4-(6,6-dimethyl-5,6,7,8-tetrahydroquinazolin-4-yl)-7-[2-(fluoromethyl)-3H-imidazo[4,5-b]pyridin-6-yl]-2,3,4,5-tetrahydro-1,4-benzoxazepine] reads at most 0.01 µM; that for `Cc1nc2ccc(-c3ccc4c(c3)CN(c3ccnc5ccccc35)CCO4)cc2[nH]1` [Example 98, 7-(2-methyl-1H-benzimidazol-6-yl)-4-quinolin-4-yl-2,3,4,5-tetrahydro-1,4-benzoxazepine], 0.05 to 0.25 µM; that for `COc1ccc2c(N3CCOc4ccc(-c5cnc(Cl)c(NS(C)(=O)=O)c5)cc4C3)ncnc2c1` [Example 608, N-(2-chloro-5-{4-[7-(methyloxy)quinazolin-4-yl]-2,3,4,5-tetrahydro-1,4-benzoxazepin-7-yl}pyridin-3-yl)methanesulfonamide], 0.01 to 0.05 µM. As to `CCN(C)Cc1nc2c(c(N3CCOc4ccc(-c5cnc6nc(C)[nH]c6c5)cc4C3)n1)CC(C)(C)CC2` [Example 605, N-({6,6-dimethyl-4-[7-(2-methyl-1H-imidazo[4,5-b]pyridin-6-yl)-2,3-dihydro-1,4-benzoxazepin-4(5H)-yl]-5,6,7,8-tetrahydroquinazolin-2-yl}methyl)-N-methylethanamine], the IC50 was at most 0.01 µM. As for `COCCOCc1nc2c(c(N3CCOc4ccc(-c5ccc6nc(C)[nH]c6c5)cc4C3)n1)CC(C)(C)CC2` [Example 494, 4-[6,6-dimethyl-2-({[2-(methyloxy)ethyl]oxy}methyl)-5,6,7,8-tetrahydroquinazolin-4-yl]-7-(2-methyl-1H-benzimidazol-6-yl)-2,3,4,5-tetrahydro-1,4-benzoxazepine], the figure is 0.01 to 0.05 µM. The result for `c1ccc2c(N3CCOc4ccc(-c5ccc6c(c5)CCO6)cc4C3)ccnc2c1` [Example 135, 7-(2,3-dihydro-1-benzofuran-5-yl)-4-quinolin-4-yl-2,3,4,5-tetrahydro-1,4-benzoxazepine] reads 1 to 2 µM. Regarding `Cc1nc2ncc(-c3ccc4c(c3)CN(c3ncnc5c3CC(C)(C)C=C5)CCO4)cc2[nH]1` [Example 478, 4-(6,6-dimethyl-5,6-dihydroquinazolin-4-yl)-7-(2-methyl-1H-imidazo[4,5-b]pyridin-6-yl)-2,3,4,5-tetrahydro-1,4-benzoxazepine], the IC50 is at most 0.01 µM. In the case of `Cc1nc2ncc(-c3ccc4c(c3)CN(c3nc(CN(C)C(C)C)nc5c3CC(C)(C)CC5)CCO4)cc2[nH]1` [Example 606, N-({6,6-dimethyl-4-[7-(2-methyl-1H-imidazo[4,5-b]pyridin-6-yl)-2,3-dihydro-1,4-benzoxazepin-4(5H)-yl]-5,6,7,8-tetrahydroquinazolin-2-yl}methyl)-N-methylpropan-2-amine], the IC50 lay within 0.01 to 0.05 µM.

Regarding `CC1(C)CCc2ncnc(N3CCOc4ccc(-c5cnc(N)c(S(=O)(=O)CC(O)CO)c5)cc4C3)c2C1` (stereo not drawn) [Example 431, 3-({2-amino-5-[4-(6,6-dimethyl-5,6,7,8-tetrahydroquinazolin-4-yl)-2,3,4,5-tetrahydro-1,4-benzoxazepin-7-yl]pyridin-3-yl}sulfonyl)propane-1,2-diol], the half-maximal inhibitory concentration (IC50) lay within 0.01 to 0.05 µM.

The term IC50 denotes the midpoint of a concentration-inhibition curve.
